Measurements from patent US20140162991A1, “TESTOSTERONE-ANASTROZOLE (T + A) C[…] IN THE NEO-ADJUVANT, LOCAL AND SYSTEMIC THERAPY OF NEWLY DIAGNOSED, […] BREAST CANCER” (priority 2012, published 2014).

Assay: adverse effects and systemic symptoms in treated patients
Settings: pharmacologic doses of testosterone

C[C@]12CC[C@H]3[C@@H](CCC4=CC(=O)CC[C@@]43C)[C@@H]1CC[C@@H]2O [testosterone]
adverse events: not associated with adverse events | androgenic side effect (applicant's patients): slight increase in facial hair
